Molecules are shown by their SMILES.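 Values below derive from 48-hour exposures of cells grown in 96-well plates, with endpoints linearly interpolated between the two concentrations bracketing the appropriate inhibition level. At the GI50, growth is halved.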 Active and inactive are the calls of the source. Rule as the data show it: active = GI50 up to about 1.1 µM and inactive = higher.

The source of these data is ChEMBL document CHEMBL1201862, “PubChem BioAssay data set” (2004).

Test systems include A549; ACHN; CAKI-1; HL-60; MDA-MB-435; MDA-N; Malme-3M; NCI-H226; NCI-H23; OVCAR-3; OVCAR-5; OVCAR-8; SF-268; SF-295; SK-MEL-2; SN12C; SNB-19; SNB-75; T47D; TK-10.
Holding throughout (assay): inhibition of tumour cell growth, NCI panel, 48 h

Take `CC(C)O/N=C/c1cc(NC(=S)OC(C)C)ccc1Cl`: the GI50 with A549 was 35.4 µM (inactive); in the experiment on ACHN, 35.2 µM (inactive); with CAKI-1, 22.9 µM (inactive); in the experiment with HL-60 it was 20.4 µM (inactive); in the experiment on MDA-MB-435 it was > 61.4 µM (inactive); in the experiment with MDA-N, > 69.5 µM (inactive). Also, the GI50 is > 91.8 µM (inactive) in the experiment on Malme-3M; 28.8 µM (inactive) in the experiment with NCI-H226; 43.9 µM (inactive) in the experiment with NCI-H23; 32.5 µM (inactive) with OVCAR-3; 48.6 µM (inactive) in the experiment with OVCAR-5; 36.9 µM (inactive) with OVCAR-8. For the same molecule, the GI50 in the experiment with SF-268 was 36.1 µM (inactive); in the experiment on SF-295 it was 25.2 µM (inactive); in the experiment on SK-MEL-2, 26 µM (inactive); with SN12C it was 31.6 µM (inactive); in the experiment with SNB-19 it was > 54.8 µM (inactive); in the experiment on SNB-75, 18.5 µM (inactive). Further, the GI50 was 34.3 µM (inactive) in the experiment with T47D and > 58.6 µM (inactive) with TK-10.

On to `CN(C)CC1CCC/C(=C\c2ccc(OC(=O)/C=C/c3ccccc3)cc2)C1=O` (stereo not given), for which the GI50 in the experiment on A549 was 2.75 µM (inactive); in the experiment on ACHN, 2.51 µM (inactive); in the experiment with CAKI-1, 1.82 µM (inactive); in the experiment on HL-60, 1.85 µM (inactive); in the experiment on MDA-MB-435, 2.59 µM (inactive); in the experiment with MDA-N, 2.52 µM (inactive). The GI50 with Malme-3M was 2.2 µM (inactive); in the experiment on NCI-H226, 2.96 µM (inactive); in the experiment with NCI-H23, 1.91 µM (inactive); in the experiment with OVCAR-3, 1.97 µM (inactive); in the experiment on OVCAR-5 it was 2.45 µM (inactive); in the experiment on OVCAR-8, 2 µM (inactive). Further, the GI50 with SF-268 is 3.37 µM (inactive); with SF-295 it was 3.56 µM (inactive); in the experiment on SK-MEL-2, 3.52 µM (inactive); in the experiment with SN12C, 2.01 µM (inactive); in the experiment on SNB-19 it was 5.35 µM (inactive); in the experiment on SNB-75 it was 6.04 µM (inactive). For the same molecule, the results for the GI50 in the experiment with T47D and in the experiment on TK-10 were 1.06 µM (active) and 1.73 µM (inactive), respectively.

For `C=CC(C)(O)CCC1C(=C)C(O)CC2C(C)(C)CCCC12C` (stereo not given), the GI50 with A549 is 22.1 µM (inactive); with ACHN it was 26 µM (inactive); in the experiment on CAKI-1, 23.5 µM (inactive); in the experiment on HL-60, 14 µM (inactive); in the experiment on MDA-MB-435 it was 18.6 µM (inactive); in the experiment with MDA-N it was 20.4 µM (inactive). The GI50 in the experiment on Malme-3M was 18.2 µM (inactive); with NCI-H226, 15.6 µM (inactive); with NCI-H23, 18.7 µM (inactive); in the experiment with OVCAR-3, 18.9 µM (inactive); in the experiment on OVCAR-5, 20 µM (inactive); in the experiment on OVCAR-8, 26.1 µM (inactive). Besides, the GI50 with SF-268 was 19.9 µM (inactive); in the experiment on SF-295, 21.1 µM (inactive); in the experiment on SK-MEL-2, 16.3 µM (inactive); in the experiment on SN12C it was 18.9 µM (inactive); in the experiment with SNB-19, 18.1 µM (inactive); in the experiment on SNB-75, 48.3 µM (inactive). Moreover, the GI50 is 23.5 µM (inactive) in the experiment with T47D and 20 µM (inactive) in the experiment with TK-10.

For `CCCCOC(=O)NC(Nc1cccc(C(F)(F)F)c1)(C(F)(F)F)C(F)(F)F`, the GI50 with A549 is 66.8 µM (inactive); in the experiment on ACHN it was 47.4 µM (inactive); in the experiment on CAKI-1, 49.2 µM (inactive); in the experiment on HL-60 it was 23.4 µM (inactive); in the experiment on MDA-MB-435 it was 33.8 µM (inactive); with MDA-N it was 41.4 µM (inactive). Besides, the GI50 in the experiment on Malme-3M was 29.2 µM (inactive); with NCI-H226, 53.7 µM (inactive); with NCI-H23, 50.8 µM (inactive); with OVCAR-3 it was 56 µM (inactive); with OVCAR-5, > 100 µM (inactive); in the experiment with OVCAR-8 it was 57.4 µM (inactive). Further, the GI50 is 60 µM (inactive) in the experiment on SF-268; 26.6 µM (inactive) with SF-295; 35.5 µM (inactive) with SK-MEL-2; 68.7 µM (inactive) in the experiment with SN12C; > 100 µM (inactive) in the experiment on SNB-19; 33.6 µM (inactive) in the experiment on SNB-75. Further, the GI50 is 13.5 µM (inactive) in the experiment on T47D and 71.1 µM (inactive) in the experiment on TK-10.

In the case of `CCOC(=O)C(SCCO)C(C(=O)OCC)n1cc(C)c(=O)[nH]c1=O` (stereo not given), the GI50 was 52.8 µM (inactive) in the experiment with A549; 8.75 µM (inactive) in the experiment on ACHN; 4.44 µM (inactive) in the experiment with CAKI-1; 2.12 µM (inactive) in the experiment with HL-60; 14.3 µM (inactive) with MDA-MB-435; 15.1 µM (inactive) in the experiment with MDA-N. Also, the GI50 was 15.4 µM (inactive) in the experiment on Malme-3M; > 32.7 µM (inactive) in the experiment with NCI-H226; 21.2 µM (inactive) in the experiment on NCI-H23; 12.5 µM (inactive) in the experiment on OVCAR-3; 15 µM (inactive) in the experiment with OVCAR-5; 14.1 µM (inactive) in the experiment on OVCAR-8. Also, the GI50 in the experiment with SF-268 was 29.3 µM (inactive); in the experiment with SF-295, > 79.4 µM (inactive); in the experiment on SK-MEL-2, 19.6 µM (inactive); with SN12C, 10.7 µM (inactive); in the experiment with SNB-19, 62.1 µM (inactive); in the experiment on SNB-75, 34.1 µM (inactive). Moreover, the GI50 is 19.6 µM (inactive) with T47D and 24.9 µM (inactive) in the experiment with TK-10.

In the case of `CN1CCc2c3n(c4cc(Br)ccc24)[C@H](O)CCCC31` (stereo not given in full), the GI50 in the experiment with A549 was > 5.86 µM (inactive); with ACHN, > 10 µM (inactive); with CAKI-1 it was 2.99 µM (inactive); in the experiment with HL-60 it was 1.85 µM (inactive); in the experiment on MDA-MB-435 it was 1.8 µM (inactive); in the experiment on MDA-N, 1.82 µM (inactive). The GI50 is 2.04 µM (inactive) with Malme-3M; > 10 µM (inactive) with NCI-H226; > 10 µM (inactive) in the experiment with NCI-H23; > 7.5 µM (inactive) with OVCAR-3; > 5.18 µM (inactive) in the experiment with OVCAR-5; 1.79 µM (inactive) in the experiment with OVCAR-8. Besides, the GI50 is > 9.31 µM (inactive) in the experiment on SF-268; 1.77 µM (inactive) in the experiment with SF-295; 0.736 µM (active) in the experiment on SK-MEL-2; > 7.16 µM (inactive) in the experiment on SN12C; > 10 µM (inactive) in the experiment with SNB-19; 2.3 µM (inactive) in the experiment on SNB-75. The GI50 with T47D is > 10 µM (inactive); in the experiment on TK-10, > 7.36 µM (inactive).

Take `CN(C)CCNC1=CC(=O)c2c(O)ccc(O)c2C1=O`: the GI50 is 10.1 µM (inactive) with A549; 11.5 µM (inactive) in the experiment with ACHN; 13.9 µM (inactive) in the experiment on CAKI-1; 1.95 µM (inactive) with HL-60; 1.8 µM (inactive) in the experiment with MDA-MB-435; 1.97 µM (inactive) in the experiment on MDA-N. Further, the GI50 in the experiment on Malme-3M was 1.25 µM (inactive); in the experiment with NCI-H226 it was 17.6 µM (inactive); in the experiment on NCI-H23 it was 4.98 µM (inactive); with OVCAR-3, 2.33 µM (inactive); in the experiment on OVCAR-5, 14.2 µM (inactive); in the experiment on OVCAR-8, 4.39 µM (inactive). In addition, the GI50 with SF-268 is 12.3 µM (inactive); in the experiment with SF-295, 11.4 µM (inactive); with SK-MEL-2 it was 8.95 µM (inactive); in the experiment on SN12C, 6.47 µM (inactive); in the experiment on SNB-19, 16 µM (inactive); with SNB-75 it was 17.1 µM (inactive). The GI50 in the experiment with T47D was 9.66 µM (inactive); in the experiment on TK-10, 14.4 µM (inactive).
